Test results taken from US20110224210A1, “NOVEL BIS-AMIDES AS ANTI-MALARIAL AGENTS” (priority 2008, published 2011).

Test system: P. falciparum K1 (strain resistant to chloroquine and pyrimethamine), erythrocytic stages
Assay: Plasmodium falciparum in vitro assay, [3H] hypoxanthine incorporation
Assay type: cell-based
Conditions: Plasmodium falciparum, K1, P. falciparum strain K1; [3H] hypoxanthine incorporation; read-out: IC50 (nM) on K1
Experimental: In Vitro Antimalarial Activity: Plasmodium falciparum In Vitro Assay
In vitro activity against erythrocytic stages of P. falciparum is determined using a [^3H] hypoxanthine incorporation assay. One strain resistant to chloroquine and pyrimethamine (P. falciparum K1) is used in the assays, and all test compounds are compared for activity with the standard drugs chloroquine (sigma C6628) and artemisinin (sigma-36, 159-3). Compounds are diluted in DMSO to 1 mM and added to parasite cultures incubated in RPMI 1640 medium without hypoxanthine, supplemented with HEPES (5.94 g/L), NaHCO3 (2.1 g/L), neomycin (100 U/mL), Albumax (5 g/L) and washed human red cells at 2.5% haematocrit (0.3% parasitaemia). Seven serial doubling dilutions of each compound are prepared in 96-well microtitre plates and incubated in a humidifying atmosphere at 37° C.; 4% CO2, 3% O2, 93% N2.
After 48 h, 50 μl of [3H] hypoxanthine (0.5 μCi) is added to each well of a plate. The plates are incubated for a further 24 h under the same conditions. The plates are then harvested with a Betaplate cell harvester (Wallac) and washed with distilled water. The dried filters are inserted into a plastic foil with 10 mL of scintillation fluid, and counted in a Betaplate liquid scintillation counter. IC50 values are calculated from sigmoidal inhibition curves using Microsoft Excel.

Structure (SMILES) | IC50
CC(=O)N1CCN(c2ccc(CN(C(=O)C=Cc3ccc(C(F)(F)F)cc3)[C@@H](Cc3ccccc3)C(=O)N(C)CCOCc3ccc(C)cc3C)cc2)CC1 [Example 183, (S)-N-[4-(4-Acetyl-piperazin-1-yl)-benzyl]-N-(1-{[2-(2,4-dimethyl-benzyloxy)-ethyl]-methyl-carbamoyl}-2-phenyl-ethyl)-3-(4-trifluoromethyl-phenyl)-acrylamide, formic acid] | 60 nM
COCCN(C)C(=O)[C@H](Cc1ccccc1)N(Cc1ccc(N2CCOCC2)cc1)C(=O)C=Cc1csnn1 [Example 66, (S)-N-{1-[(2-Methoxy-ethyl)-methyl-carbamoyl]-2-phenyl-ethyl}-N-(4-morpholin-4-yl-benzyl)-3-[1,2,3]thiadiazol-4-yl-acrylamide] | 494 nM
COCCN(C)C(=O)[C@H](Cc1ccccc1)N(Cc1ccc(-c2ccncc2)cc1)C(=O)C=Cc1csc(C)n1 [Example 94, (S)-N-{1-[(2-Methoxy-ethyl)-methyl-carbamoyl]-2-phenyl-ethyl}-3-(2-methyl-thiazol-4-yl)-N-(4-pyridin-4-yl-benzyl)-acrylamide] | 15 nM
CN(CCOCc1cccc(C#N)c1)C(=O)[C@H](Cc1ccccc1)N(Cc1ccc(N2CCOCC2)cc1)C(=O)C=Cc1ccc(C(F)(F)F)cc1 [Example 197, (S)-N-(1-{[2-(3-Cyano-benzyloxy)-ethyl]-methyl-carbamoyl}-2-phenyl-ethyl)-N-(4-morpholin-4-yl-benzyl)-3-(4-trifluoromethyl-phenyl)-acrylamide] | 29 nM
CC(=O)N1CCN(c2ccc(CN(C(=O)C=Cc3ccc(C(F)(F)F)cc3)[C@@H](Cc3ccccc3)C(=O)N(C)CCOCc3cccnc3)cc2)CC1 [Example 190, (S)-N-[4-(4-Acetyl-piperazin-1-yl)-benzyl]-N-(1-{methyl-[2-(pyridin-3-ylmethoxy)-ethyl]-carbamoyl}-2-phenyl-ethyl)-3-(4-trifluoromethyl-phenyl)-acrylamide, formic acid] | 7 nM
COCCN(C)C(=O)[C@H](Cc1ccccc1)N(Cc1ccc(-c2ccncc2)cc1)C(=O)C=Cc1csnn1 [Example 98, (S)-N-{1-[(2-Methoxy-ethyl)-methyl-carbamoyl]-2-phenyl-ethyl}-N-(4-pyridin-4-yl-benzyl)-3-[1,2,3]thiadiazol-4-yl-acrylamide] | 98 nM
CN(C)C1CCN(C(=O)[C@H](Cc2ccccc2)N(Cc2ccc(-c3ccncc3)cc2)C(=O)C=Cc2ccc(C(F)(F)F)cn2)CC1 [Example 30, (S)-N-[1-Benzyl-2-(4-dimethylamino-piperidin-1-yl)-2-oxo-ethyl]-N-(4-pyridin-4-yl-benzyl)-3-(5-trifluoromethyl-pyridin-2-yl)-acrylamide] | 34 nM
CN(CCN(C)C(=O)[C@H](Cc1ccccc1)N(Cc1ccc(N2CCOCC2)cc1)C(=O)C=Cc1ccc(C(F)(F)F)cc1)Cc1ccc2c(c1)OCCN2C [Example 263, (S)-N-[1-(Methyl-{2-[methyl-(4-methyl-3,4-dihydro-2H-benzo[1,4]oxazin-7-ylmethyl)-amino]-ethyl}-carbamoyl)-2-phenyl-ethyl]-N-(4-morpholin-4-yl-benzyl)-3-(4-trifluoromethyl-phenyl)-acrylamide] | 72 nM
CN(CCN(C)C(=O)[C@H](Cc1ccccc1)N(Cc1ccc(N2CCOCC2)cc1)C(=O)C=Cc1ccc(C(F)(F)F)cc1)Cc1cccc(C#N)c1 [Example 261, (S)-N-[1-({2-[(3-Cyano-benzyl)-methyl-amino]-ethyl}-methyl-carbamoyl)-2-phenyl-ethyl]-N-(4-morpholin-4-yl-benzyl)-3-(4-trifluoromethyl-phenyl)-acrylamide] | 48 nM
COCCN(C)C(=O)[C@H](Cc1ccccc1)N(Cc1ccc(N2CCN(C(C)=O)CC2)cc1)C(=O)C=Cc1c(C)noc1C [Example 109, (S)-N-[4-(4-Acetyl-piperazin-1-yl)-benzyl]-3-(3,5-dimethyl-isoxazol-4-yl)-N-{1-[(2-methoxy-ethyl)-methyl-carbamoyl]-2-phenyl-ethyl}-acrylamide] | 100 nM
